The source made the active and inactive calls. The calls are words filed in the database; no cut-off is given here.
Assays:
[1] = Plasma concentration in mouse after 12 hrs; assay type: ADME, cell-free
[2] = Half life in CD1 mouse at 10 mg/kg, po by UPLC analysis; assay type: ADME, organism-based; conditions: in vivo
[3] = Clearance in Sprague-Dawley rat at 3 mg/kg, iv by UPLC analysis; assay type: ADME, organism-based; conditions: in vivo
[4] = AUCt in Sprague-Dawley rat at 10 mg/kg, po via gavage by UPLC analysis; assay type: ADME, organism-based; conditions: in vivo
[5] = Volume of distribution at steady state in Sprague-Dawley rat at 3 mg/kg, iv by UPLC analysis; assay type: ADME, organism-based; conditions: in vivo, read-out: Vdss
[6] = Intrinsic clearance in dog liver microsomes at 1 uM measured up to 30 mins by LC-MS/MS analysis; assay type: ADME, Canis lupus familiaris, microsome; conditions: read-out: CLH
[7] = Intrinsic clearance in monkey liver microsomes at 1 uM measured up to 30 mins by LC-MS/MS analysis; assay type: ADME, Macaca mulatta, microsome; conditions: rhesus monkey, read-out: CLH
[8] = molecular target: T1, Cytochrome P450 1A2 (Homo sapiens, UniProt P05177); test: Inhibition of CYP1A2 in human liver microsomes using phenacetin after 10 mins in presence of NADPH by LC-MS/MS analysis; assay type: ADME
T1 sequence (P05177 whole entry): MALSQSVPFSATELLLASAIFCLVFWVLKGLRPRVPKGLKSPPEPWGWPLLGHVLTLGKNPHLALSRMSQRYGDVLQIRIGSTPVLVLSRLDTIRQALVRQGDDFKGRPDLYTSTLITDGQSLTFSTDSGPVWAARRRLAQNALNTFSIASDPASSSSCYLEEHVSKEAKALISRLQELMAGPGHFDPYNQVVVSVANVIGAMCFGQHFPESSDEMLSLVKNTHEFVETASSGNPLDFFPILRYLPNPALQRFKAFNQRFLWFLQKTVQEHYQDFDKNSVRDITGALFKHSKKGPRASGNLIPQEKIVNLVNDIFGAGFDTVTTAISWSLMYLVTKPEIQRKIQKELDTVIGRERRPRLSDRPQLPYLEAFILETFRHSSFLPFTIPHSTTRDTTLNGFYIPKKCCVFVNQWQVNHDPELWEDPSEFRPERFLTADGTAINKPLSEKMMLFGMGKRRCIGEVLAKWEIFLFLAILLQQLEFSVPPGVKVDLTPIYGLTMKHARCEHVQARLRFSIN

[9] = Protein binding in human plasma at 10 uM after 4 hrs by LC-MS/MS analysis; assay type: ADME, cell-free; conditions: read-out: PPB (converted)
[10] = Protein binding in dog plasma at 10 uM after 4 hrs by LC-MS/MS analysis; assay type: ADME, cell-free, Canis lupus familiaris; conditions: read-out: PPB (converted)
[11] = tested on: Mus musculus; test: In vivo inhibition of HIF-2alpha in SCID/Biege mouse xenografted with human 786-O cells assessed as reduction in CCND1 mRNA levels at 10 mg/kg, po bid for 3 days and measured after 12 hrs post last dose by qRT-PCR analysis; assay type: functional, organism-based
[12] = tested on: Mus musculus; test: Minimum drug level in SCID/Biege mouse xenografted with human 786-O cells at 10 mg/kg, po bid for 3 days and measured after 12 hrs post last dose by LC-MS/MS analysis; assay type: ADME, organism-based; conditions: in vivo
[13] = tested on: 786-0; test: In vivo inhibition of HIF-2alpha in SCID/Biege mouse xenografted with human 786-O cells assessed as reduction in tumor derived VEGFA protein levels at 10 mg/kg, po bid for 3 days and measured after 12 hrs post last dose by ELISA; assay type: functional, organism-based
[14] = tested on: Rattus norvegicus; test: Drug metabolism in Sprague-Dawley rat assessed as formation of 3-( (4-( ( D ifluoromethyl)-1,1-dioxido-3-oxo-2,3-dihydrobenzo[b]thiophen-5-yl)oxy)-5-fluorobenzonitrile at 10 mg/kg, po by UPLC analysis; assay type: ADME, organism-based; conditions: in vivo
[15] = molecular target: Cytochrome P450 2C19 (Homo sapiens, UniProt P33261); test: Inhibition of CYP2C19 in human liver microsomes using S-mephenytoin as substrate after 20 mins in presence of NADPH by LC-MS/MS analysis; assay type: ADME
Sequence of Cytochrome P450 2C19 (P33261 whole entry): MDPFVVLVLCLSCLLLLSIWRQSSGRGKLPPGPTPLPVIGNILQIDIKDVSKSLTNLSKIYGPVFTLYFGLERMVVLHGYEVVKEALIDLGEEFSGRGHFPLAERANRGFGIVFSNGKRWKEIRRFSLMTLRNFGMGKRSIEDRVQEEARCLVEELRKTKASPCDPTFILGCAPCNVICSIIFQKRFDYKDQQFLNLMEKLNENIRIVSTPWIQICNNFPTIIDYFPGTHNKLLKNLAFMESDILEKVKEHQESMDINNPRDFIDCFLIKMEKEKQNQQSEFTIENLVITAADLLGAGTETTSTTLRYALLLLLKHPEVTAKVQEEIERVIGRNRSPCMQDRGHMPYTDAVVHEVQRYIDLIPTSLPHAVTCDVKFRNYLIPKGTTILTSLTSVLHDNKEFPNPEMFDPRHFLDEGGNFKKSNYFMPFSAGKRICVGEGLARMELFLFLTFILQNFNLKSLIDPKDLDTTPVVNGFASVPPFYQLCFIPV

| SMILES | concentration at 12 h [1] [nM] | half-life [2] [h] | clearance [3] [mL/min/kg] | AUC(0-t) [4] [µM·h] | Vd [5] [L/kg] | CLint scaled at 1 µM [6] [mL/min/kg] | CLint scaled at 1 µM [7] [mL/min/kg] | IC50 [8] [µM] | fraction unbound at 4 h, 10 µM [9] | fraction unbound at 4 h, 10 µM [10] | inhibition [11] | Drug uptake [12] | inhibition [13] | Drug metabolism [14] | IC50 [15] [µM] |
| --- | --- | --- | --- | --- | --- | --- | --- | --- | --- | --- | --- | --- | --- | --- | --- |
| N#Cc1cc(F)cc(Oc2ccc3c(c2C(F)F)[C@@H](O)C(F)(F)S3(=O)=O)c1 | 220 | 6.5 | 27.2 | 5.49 | 3.5 | < 5 | < 4 | > 50 | 0.37 | 0.18 | Active | Active | Active | Metabolite_Detected | – |
| CS(=O)(=O)c1ccc(Oc2cc(F)cc(C#N)c2)c2c1[C@H](O)C(F)(F)C2 | 460 | 3.3 | 34.6 | 5.12 | 6.24 | < 5 | 5.4 | > 50 | 0.21 | 0.25 | Active | Active | Active | – | 46 |
